Test results as given in paper PMC6017655, “In Silico and in Vitro-Guided Identification of Inhibitors of Alkylquinolone-Dependent Quorum Sensing in Pseudomonas aeruginosa” (Molecules : A Journal of Synthetic Chemistry and Natural …, 2018).

How the values were obtained:
[1] = system: pyocyanin production by PAO1-L; assay: Pyocyanin production assay, PAO1-L; format: cell-based, Pseudomonas aeruginosa; details: 3x IC50, 16 h
Protocol: (§1) Pyocyanin is a blue redox-active toxin, produced by P. aeruginosa and strongly-controlled by PqsR via the regulation of pqsE expression. Pyocyanin is essential for the pathogenicity of P. aeruginosa in lung infections. The effect of the PqsR inhibitors on pyocyanin production by PA14 and PAO1-L strains, when grown in the presence or absence of the inhibitors, was investigated (Figure 4).
(§2) The experiment was performed following a published protocol with minor modifications. P. aeruginosa strains were cultured into 5 mL fresh medium overnight. […] Cells were centrifuged at 10,000 RCF for 10 min (Allegra 64R centrifuge, Beckman Coulter, High Wycombe, UK) and the supernatant was transferred to 15 mL falcon tubes with a HSW 10 mL Soft-Ject Syringe and a […] Sartorius syringe-driven filter (Fisher Brand, Loughborough, UK). Pyocyanin pigment was extracted into chloroform by mixing 7.5 mL of supernatant with 4.5 mL of chloroform. Pyocyanin was further extracted into 1.5 mL of 0.2 M HCL, which gave a pink/red solution, and the absorbance was measured at 520 nm.

[2] = system: PA14; assay: Bacterial growth (optical density) in reporter assay, PA14; format: cell-based, Pseudomonas aeruginosa; details: compound vs DMSO control
Protocol: To determine the ability of the quinolines to inhibit PqsR functionality, the P. aeruginosa biosensor strains, PAO1-L and PA14, incorporating a chromosomal mCTX::PpqsA-lux transcriptional fusion, were used. These report on the activation of the pqsA promoter, regulated by PqsR [25]. PAO1-L and PA14 were chosen because they are genetically amenable and belong to the two major P. aeruginosa genomic groups. The quinolone compounds were incubated with the corresponding strain, and luminescence and optical density readings were recorded to monitor the effect of the quinolines on PqsR activity and bacterial growth, respectively. The compounds were screened at 10 µM concentration, and the activity was compared to a control of DMSO (0.1%) (Figure 3a). To be considered a hit, a threshold of at least 50% inhibition of the test compound, relative to the negative control had to be reached, without affecting bacterial growth. […] Concentration-response experiments were then carried out to determine the IC50 values (Figure 3b,c), which are summarised in Table 1.
Figure 3 Whole bacterial cell-based P. aeruginosa compound screen for both PqsR and growth inhibition (a) Activity against PA14 (green) and PAO1-L (purple) PpqsA-lux reporter strains at 10 µM test compound; (b) and (c) Dose-response curves for active compounds against PA14 (b) and PAO1-L (c); (d) and (e) growth curves for PA14 (d) and PAO1-L (e) in the presence of compound or DMSO control.

[3] = system: AQ production in PA14; assay: Alkylquinolone (HHQ, PQS, HQNO) production by LC-MS/MS, PA14; format: cell-based, Pseudomonas aeruginosa; details: 3x IC50, 16 h, culture supernatant
Protocol: HQNO, can protect Staphylococcus aureus from vancomycin [31] and contributes to the environmental competitiveness of P. aeruginosa, through its activity as a potent inhibitor of the cytochrome bc1 complex. […] LC-MS/MS was used to quantify the major AQs HHQ, PQS and HQNO after incubation of the P. aeruginosa strains with the hit compounds, for 16 h. The assay was performed using both PAO1-L and PA14 strains which were treated with PqsR antagonists at concentrations three-fold higher than their IC50 values. The results obtained depended on the inhibitor and strain tested (Figure 5).
For each test sample, 100 µL of sterile filtered supernatant (the same preparation as for pyocyanin) was spiked with 10 µL of an internal standard solution (10 µM d4-PQS in MeOH), and diluted with water, to a total volume of 500 µL. Samples were then extracted three times with an 0.5 mL aliquot of ethyl acetate, vortex mixing the aqueous/organic mix for 2 min, then removing the organic phase once the layers had successfully partitioned. For each sample, the combined organic extracts were dried under vacuum and re-dissolved in 100 µL MeOH prior to analysis. For the LC-MS/MS analysis of supernatant extracts, the chromatography was achieved using a Shimadzu series 10AD VP LC system (Columbia, MD, USA). The LC column, maintained at 40 °C, was a Phenomenex Gemini C18 (3.0 µm, 100 × 3.0 mm) (Macclesfield, Cheshire, UK) with an appropriate guard column. Mobile phase A was 0.1% (v/v) formic acid in water containing 2 mM 2-picolinic acid, and mobile phase B 0.1% (v/v) formic acid in methanol. The flow rate throughout the chromatographic separation was 450 µL/min. After an injection of a 2 µL/sample, a binary gradient, beginning initially at 30% B, increased linearly to 99% B over 5 min. The composition remained at 99% B for 3 min, decreased to 30% B over 1 min, and stayed at this composition for 4 min, to allow for column equilibration. […] Where chromatographic peaks for HHQ, HQNO and PQS were detected, a peak area was determined, and analyte peak area/internal standard peak area calculated.

[4] = Hepatic microsomal stability, rat; format: in vitro ADME; details: liver microsomes, pH 7.4, 0.5 mg/mL protein, NADPH, 37 °C; for microsomal CLint at 1 µM: read-out: Microsomal Stability Rat Clint (intrinsic clearance); for half-life at 1 µM: read-out: Microsomal Stability Rat t1/2
Protocol: Dilutions of a 1 mM test compound DMSO stock solution were prepared in buffer (typically 0.01 M phosphate buffered saline (pH 7.4) so that the final DMSO concentration was 0.1% v/v and the final test compound concentration tested was 1 µM. Following addition of protein (0.5 mg/mL final) and NADPH, the samples were pre-incubated for 10 min prior to the start of the incubation by the addition of test compound. The test compounds were then incubated (n = 2; 1 µM final concentration) at 37 °C with tissue microsomes. Aliquots were sampled at several time points and mixed with acetonitrile (containing internal standard) to terminate the reaction and precipitate the proteins. All the samples were mixed, centrifuged and the supernatants analysed by UPLC-MS/MS. The intrinsic clearance (Clint) and half-life (t 1/2) values were determined from the slope of the parent depletion curve. Control compounds for low, moderate and high intrinsic clearance, respectively, for both human and rat microsomes, were included.

[5] = system: pyocyanin production by PA14; assay: Pyocyanin production assay, PA14; format: cell-based, Pseudomonas aeruginosa; details: 3x IC50, 16 h
Protocol: as §1, §2

[6] = strain not singled out in the sentence

Compound	Effect on pyocyanin production (in words), PAO1-L [1]	Reduction of pyocyanin production, PAO1-L [1, 6]	Effect on bacterial growth, PA14 [2]	Inhibition of AQ production (in words), PA14 [3]	microsomal CLint at 1 µM [4] [µL/min/mg]	half-life at 1 µM [4] [min]	Effect on pyocyanin production (in words), PA14 [5]	Reduction of pyocyanin production, PA14 [5, 6]
CC(=O)N1N=C(c2ccccc2)CC1c1cccc(Nc2ccnc3cc(Cl)ccc23)c1 (centres unmarked) [IIa]	weakest effect	over 25%	without interfering with bacterial growth	moderate effect	87.8	15.8	weakest effect	over 25%
O=CN1N=C(c2ccccc2)CC1c1cccc(Nc2ccnc3cc(Cl)ccc23)c1 (centres unmarked) [Ia]	strongest effect		without interfering with bacterial growth	strongly-inhibited AQ production	122	11.5	strongest effect	
